Experimental data reported in patent US20250243180A1, “TARGETED PROTEIN DEGRADATION” (Monte Rosa Therapeutics AG, priority 2023, published 2025).

Tests used:
[1] = Plasma concentration in NHP, multiple-dose study 5 mg/kg oral; format: in vivo, cynomolgus monkeys; settings: both sexes, cynomolgus monkey
Protocol: (§1) Non-naïve male and female non-human primate (NHP) cynomolgus monkeys were orally administered with 5 consecutive daily doses of Compound 14 at 5 mg/kg, n=2 per dose group, 1 male and 1 female. Compound formulation was prepared on the day of administration in 0.5% methyl cellulose (4000 cps) in water and animals were fasted overnight. Plasma collected post dose were analyzed using a non GLP LC/MS/MS bioanalytical method to evaluate the compound concentration. Whole blood collected post dose were processed to PBMC and were analyzed using western blot method. Plasma pharmacokinetics and PMBC pharmacodynamics were assessed longitudinally throughout dosing and following dosing cessation.
In Table 7, plasma was isolated 6 h after final dose (dosed once or over five consecutive days), n=2. Plasma collected post dose were analyzed using a non GLP LC/MS/MS bioanalytical method to evaluate the compound concentration.

NEK7 [2] = test: NEK7 level in PBMC of NHP after oral dosing; format: in vivo, cynomolgus monkeys; settings: oral 5 mg/kg for 5 days
Protocol: as §1
In Table 8 compound 14 induces NEK7 degradation in vivo. NEK7 protein levels were assessed in PBMC isolated from NHP after oral administration for 5 consecutive days of Compound 14 at 5 mg/kg, n=2 per dose group. NEK7 levels were normalized to β-actin, as determined by JESS, at the indicated time points. NEK7 level at pre dose was normalized to 100%. Days 10 and 15 correspond to recovery period, 5 or 10 days after drug administration, respectively.

NEK7 [3] = test: NEK7 degradation in spleen and PBMC in rabbit gout model (JESS); format: in vivo; settings: rabbits, 10 mg/kg QD×7, harvested 2 h after the final dose
Protocol: MSU crystals were prepared by dissolving uric acid (Aladdin, cat #U105582) in boiling water (1 g in 200 mL with 6 mL of 1 N NaOH). PH value was adjusted to 7.2 by HCl. The solution was stirred and cooled to room temperature and stored at 4° C. overnight. The precipitate was filtered with filter paper and dried under low heat to obtain MSU crystals. New Zealand White rabbits received an intra-articular injection of 1 mL of MSU crystals (50 mg/mL) into both knees (MSU group) or PBS (as vehicle, control group). n=10 for MSU groups; n=6 for PBS group. […]
On Day 7, tissue was harvested 2 hours post final dose. […] Lysates were prepared in M-PER lysis buffer and protein concentration was measured using Pierce rapid gold BCA protein Assay Kit (Thermo Fisher) according to manufacturer's protocol. […]
(a) To determine NEK7 degradation, spleens and peripheral blood mononuclear cells (PBMC) were analyzed by JESS for NEK7 and normalized to α-Tubulin from five representative animals. (b) The degree of joint swelling was determined by caliper measurements at the indicated time points. (c) Rabbit bone tissue sections were stained and quantified for anti-CD31 immunohistochemistry. Results expressed as mean±SEM. […]

[4] = system: New Zealand White rabbits, MSU crystal gout model; test: In vivo rabbit gout model (intra-articular MSU): joint swelling and CD31 staining; settings: daily prophylactic treatment
Protocol: MSU crystals were prepared by dissolving uric acid (Aladdin, cat #U105582) in boiling water (1 g in 200 mL with 6 mL of 1 N NaOH). PH value was adjusted to 7.2 by HCl. The solution was stirred and cooled to room temperature and stored at 4° C. overnight. The precipitate was filtered with filter paper and dried under low heat to obtain MSU crystals. New Zealand White rabbits received an intra-articular injection of 1 mL of MSU crystals (50 mg/mL) into both knees (MSU group) or PBS (as vehicle, control group). n=10 for MSU groups; n=6 for PBS group.
For immunohistochemistry, bone sections were stained with anti-CD31 (Abcam #ab9498) diluted at 1:500. The nuclei were stained with hematoxylin. Slides were scanned using LEICA Aperio GT450 at 400× magnification. The number of positive blood vessels were counted blindly.
(a) To determine NEK7 degradation, spleens and peripheral blood mononuclear cells (PBMC) were analyzed by JESS for NEK7 and normalized to α-Tubulin from five representative animals. (b) The degree of joint swelling was determined by caliper measurements at the indicated time points. (c) Rabbit bone tissue sections were stained and quantified for anti-CD31 immunohistochemistry. Results expressed as mean±SEM. Statistical analysis was performed using two-way ANOVA. The difference was considered significant when p<0.05.

SMILES | concentration at 6 h ([1]; Day 1, 6 h post final dose) | concentration at 6 h ([1]; Day 5, 6 h post final dose) | Average percent NEK7/β-actin in PBMC, relative to predose (NEK7 [2]; Day 1, 6 h) | Average percent NEK7/β-actin in PBMC, relative to predose (NEK7 [2]; Day 1, 24 h) | Average percent NEK7/β-actin in PBMC, relative to predose (NEK7 [2]; Day 5, 6 h) | Average percent NEK7/β-actin in PBMC, relative to predose (NEK7 [2]; Day 5, 24 h) | Average percent NEK7/β-actin in PBMC, relative to predose (NEK7 [2]; Day 10, 24 h (recovery)) | Average percent NEK7/β-actin in PBMC, relative to predose (NEK7 [2]; Day 15, 24 h (recovery)) | degradation of NEK7 in spleen and PBMCs (NEK7 [3]) | CD31 staining in bone tissue [4] | joint swelling induced by intra-articular MSU injection [4]
Cc1cnc(C(C)(C)C(=O)NCc2cc(Cl)c(C3CCC(=O)NC3=O)c(Cl)c2)nc1 (centres unmarked) [Compound 14, N-(3,5-dichloro-4-(2,6-dioxopiperidin-3-yl)benzyl)-2-methyl-2-(5-methylpyrimidin-2-yl)-propanamide] | 5.4 ng/mL | 7.5 ng/mL | 56% | 44% | 27% | 15% | 45% | 141% |  |  | 
CC(C)(C(=O)NCc1cc(Cl)c(C2CCC(=O)NC2=O)c(Cl)c1)c1ncc(C#N)cn1 (centres unmarked) [Compound 16, 2-(5-cyanopyrimidin-2-yl)-N-(3,5-dichloro-4-(2,6-dioxopiperidin-3-yl)benzyl)-2-methyl-propanamide] |  |  |  |  |  |  |  |  | greater than 50% | improvement | improvement
